The values below come from patent publication US11091414B2, “Complexes of 1-methylcyclopropene with metal coordination polymer networks” (AGROFRESH INC., priority 2014, dated 2021).

SMILES strings stand for the structures.

What all share (type): physicochemical
The nature of data set [1]: Thermal stability by thermogravimetric analysis (TGA). The note with it: 10° C./min to 600° C. under nitrogen. On the procedure:
This Example illustrates the thermal stability of MCPN. Thermogravimetric analysis (TGA) was conducted to determine the temperature that causes structural change in MCPN. […] TGA data was collected on a TA Q5000 Analyzer with a temperature ramping rate of 10° C./min from room temperature to 600° C. under nitrogen gas flow.

Data set [2] in a line: Adsorption or inclusion level of 1-MCP in adsorbents/encapsulants (release in water, headspace GC). On the procedure:
This Example provides specific examples of methods for adsorbing 1-MCP into a MCPN. Adsorption of 1-MCP was carried out using both a modified solid method (method A) and a solution-based method (method B), as disclosed herein. The general protocol in both methods included a dual-vessel system, where 1-MCP was generated in the first vessel, also referred to as the generation vessel, and the adsorption took place in the second vessel, also referred to as the adsorption vessel. Before adsorption, 50 mg of adsorbent was first dried in a vacuum oven at 100° C. overnight and sealed in the adsorption vessel. […]
This Example illustrates some of the differences between the MCPNs of the present disclosure and prior art encapsulants (cyclodextrins). […] The percentage adsorbed or encapsulated was quantified by taking 55 mg of A1 or E4 and mixed with 25 ml of water in 500 ml sealed glass bottles to release 1-MCP.
Headspace sample was collected and injected into gas chromatography using methods described in Mir, “Harvest Maturity, Storage Temperature and 1-MCP Application Frequency Alter Firmness Retention and Chlorophyll Fluorescence of “Redchief Delicious” Apples,” Journal of American society of horticultural science, 2001, 126(5): 618-624). […] The peak area was used to quantify the concentration.

The nature of data set [3]: Release rate of 1-MCP by hydration with water (method C). On the procedure: This Example illustrates the release rate of 1-MCP from MCPNs and cyclodextrins. […] Encapsulation of sample S4 was carried out using methods A and D. Method C was used for the release of 1-MCP, where about 25 mg of S1 and S4 were hydrated with 25 mL of water in a 500 mL glass bottle under agitation. Headspace samples were withdrawn periodically to quantify the released 1-MCP.

Data set [4] is described as follows: Stability in water by powder X-ray diffraction. The following applies: soaked in water 1 hour, 5 hours, 20 hours.

`OC[C@H]1O[C@@H]2O[C@H]3[C@H](O)[C@@H](O)[C@@H](O[C@H]4[C@H](O)[C@@H](O)[C@@H](O[C@H]5[C@H](O)[C@@H](O)[C@@H](O[C@H]6[C@H](O)[C@@H](O)[C@@H](O[C@H]7[C@H](O)[C@@H](O)[C@@H](O[C@H]8[C@H](O)[C@@H](O)[C@@H](O[C@H]1[C@H](O)[C@H]2O)O[C@@H]8CO)O[C@@H]7CO)O[C@@H]6CO)O[C@@H]5CO)O[C@@H]4CO)O[C@@H]3CO` [C-b, beta cyclodextrin] registered a Decomposing temperature in data set [1] of 280 °C.
For the compound `OC[C@H]1O[C@@H]2O[C@H]3[C@H](O)[C@@H](O)[C@@H](O[C@H]4[C@H](O)[C@@H](O)[C@@H](O[C@H]5[C@H](O)[C@@H](O)[C@@H](O[C@H]6[C@H](O)[C@@H](O)[C@@H](O[C@H]7[C@H](O)[C@@H](O)[C@@H](O[C@H]1[C@H](O)[C@H]2O)O[C@@H]7CO)O[C@@H]6CO)O[C@@H]5CO)O[C@@H]4CO)O[C@@H]3CO` [S4, Alpha cyclodextrin], the “Adsorption or inclusion level” value in data set [2] (1-MCP loaded by method A (solid method)) is given as 0.05%; in data set [2] (1-MCP loaded by method D (solution in pH 4.6 buffer, 50 mg S4/mL)), 2.46%. Moreover, the “Time to complete release of 1-MCP” value in data set [3] (loaded by method A) was “almost instantaneously”; in data set [3] (loaded by method D), ≤ 40 min. The “% Released” value is given as 39% in data set [3] (loaded by method D, 5 min); 62% in data set [3] (loaded by method D, 15 min); 84% in data set [3] (loaded by method D, 25 min); 100% in data set [3] (loaded by method D, 40 min); 100% in data set [3] (loaded by method D, 60 min). Moreover, the “Change of X-ray pattern / structure after soaking in water” value in data set [4] is recorded as “dramatic structure change after 1 hour soaking in water”. This compound showed a Decomposing temperature in data set [1] of 280 °C.
